Results on 5 compounds are retold here after patent publication US20230002439A1, “CRYSTALLINE FORMS OF VAMOROLONE” (ReveraGen BioPharma, Inc., priority 2021, published 2023).

Data set [1] in a line: DSC thermal treatment and hot-stage pXRD (Form II vs. Form I). Type of data set: physicochemical. On the procedure: The melting of vamorolone was performed in a DSC apparatus at a heating rate of 10° C./min. The DSC furnace was programmed to cool at 10° C./min down to −40° C. A second heating cycle at a heating rate of 10° C./min was performed.
The solid samples were examined using an X-ray diffractometer (Bruker D8 advance). The system is equipped with highly-parallel x-ray beams (Göbel Mirror) and a LynxEye detector. The samples were scanned from 3 to 40° 20 at a step size of 0.02° 20 and a time per step of 19.70 seconds. The tube voltage and current were 45 kV and 40 mA, respectively. The sample was transferred from the sample container onto a zero background XRD-holder and gently ground.
DSC analyses were conducted on a TA Instruments Q200. The calibration standard was indium. A sample of 2.0 mg in weight was placed into a TA DSC pan, and weight was accurately recorded. Crimped pans were used for analysis, and the samples were heated under nitrogen (50 mL/min) at a rate of 10° C./min, up to a final temperature of 260° C.
However, the pXRD pattern obtained after the sample was cooled down to room temperature is similar to the initial material. […] It is estimated from DSC and hot-stage pXRD data that the transition temperature could well be above 100° C. […]
In general terms: In DSC, transitions show as peaks or steps in heat flow.

Data set [2] can be described thus: Thermogravimetric analysis (TGA). Type of data set: physicochemical. On the procedure: TGA analyses were carried out on a TA Instruments TGA Q500. Approximately 2.0 mg of samples were placed in a tared platinum or aluminum pan, automatically weighed, and inserted into the TGA furnace. The samples were heated at 10° C./min to a final temperature of 300° C. The purge gas is nitrogen for balance at 40 mL/min and the sample at 60 mL/min, respectively.

The target in data set [3] is T1, glucocorticoid receptor (Homo sapiens, UniProt P04150).
T1 sequence (P04150 1-777): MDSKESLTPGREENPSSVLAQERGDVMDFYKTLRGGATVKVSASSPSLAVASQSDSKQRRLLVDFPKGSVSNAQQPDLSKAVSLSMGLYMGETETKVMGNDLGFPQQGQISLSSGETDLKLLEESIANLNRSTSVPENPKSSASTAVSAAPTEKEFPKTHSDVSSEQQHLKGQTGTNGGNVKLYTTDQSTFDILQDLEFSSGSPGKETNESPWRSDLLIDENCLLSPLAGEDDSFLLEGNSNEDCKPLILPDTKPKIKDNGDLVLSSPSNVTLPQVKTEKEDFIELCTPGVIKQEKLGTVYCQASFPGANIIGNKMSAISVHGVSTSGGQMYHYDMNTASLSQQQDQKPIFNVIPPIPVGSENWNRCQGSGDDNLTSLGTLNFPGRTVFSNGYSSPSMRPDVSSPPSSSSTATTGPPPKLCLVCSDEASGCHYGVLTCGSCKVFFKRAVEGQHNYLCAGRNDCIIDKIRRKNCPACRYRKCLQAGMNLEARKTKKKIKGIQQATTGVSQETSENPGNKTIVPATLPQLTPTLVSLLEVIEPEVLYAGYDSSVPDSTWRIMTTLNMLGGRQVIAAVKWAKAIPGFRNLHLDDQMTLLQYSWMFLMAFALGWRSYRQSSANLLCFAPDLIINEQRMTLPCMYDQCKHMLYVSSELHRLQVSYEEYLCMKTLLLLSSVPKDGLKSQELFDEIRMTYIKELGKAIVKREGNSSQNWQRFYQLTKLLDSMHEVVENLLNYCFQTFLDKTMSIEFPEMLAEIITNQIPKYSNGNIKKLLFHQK
As to conditions: pre-clinical data, background statement; cited from earlier work.

Data set [4] has as its system mouse models of inflammatory states. As to conditions: multiple mouse models; including loss of growth stunting and loss of bone fragility; cited from earlier work.

In the case of `C[C@@H]1C[C@H]2[C@@H]3CCC4=CC(=O)C=C[C@]4(C)C3=CC[C@]2(C)[C@@]1(O)C(=O)CO` [Form II, 17α,21-dihydroxy-16α-methylpregna-1,4,9(11)-triene-3,20-dione], the “relative stability of polymorphs” value in data set [1] (above the transition temperature) was “most stable”.

As for `C[C@@H]1C[C@H]2[C@@H]3CCC4=CC(=O)C=C[C@]4(C)C3=CC[C@]2(C)[C@@]1(O)C(=O)CO` [Form VII, 17α,21-dihydroxy-16α-methylpregna-1,4,9(11)-triene-3,20-dione], the TGA weight loss entry in data set [2] (below about 225° C.) was “less than 1%”.

On to `C[C@@H]1C[C@H]2[C@@H]3CCC4=CC(=O)C=C[C@]4(C)C3=CC[C@]2(C)[C@@]1(O)C(=O)CO` [Form IV, 17α,21-dihydroxy-16α-methylpregna-1,4,9(11)-triene-3,20-dione], for which the TGA weight loss is under 0.5% in data set [2] (FIG. 7, temperature not stated) and “less than 0.5%” in data set [2] (below about 200° C.).

Take `C[C@@H]1C[C@H]2[C@@H]3CCC4=CC(=O)C=C[C@]4(C)C3=CC[C@]2(C)[C@@]1(O)C(=O)CO` [Form I, 17α,21-dihydroxy-16α-methylpregna-1,4,9(11)-triene-3,20-dione]: the “relative stability of polymorphs” value in data set [1] (below the transition temperature) is “most stable form”.

On to `C[C@@H]1C[C@H]2[C@@H]3CCC4=CC(=O)C=C[C@]4(C)C3=CC[C@]2(C)[C@@]1(O)C(=O)CO` [vamorolone, 17α,21-dihydroxy-16α-methylpregna-1,4,9(11)-triene-3,20-dione], for which the “binding to the glucocorticoid receptor” value in data set [3] is recorded as “binds potently”. The side effect profiles entry in data set [4] was “dramatically improves side effect profiles”.
